Measurements taken from BindingDB's records for doi:10.1016/s0960-894x(98)00116-4 (University of Waterloo, 1999).
pIC50, pKi: −log10 of the molar value. *1 amine or outer side, *2 acyl side, *3 side chain or, on linkers, in order; H or OH if unused. Where a SMILES comes first, the peptide text is derived from it. The star is where a group is joined. γGlu = O=C(O)[CH](CCC(=O)[*:2])N[*:1]; NHOH = ON*

Key:
[1] = biological target: Lactoylglutathione lyase (Saccharomyces cerevisiae); experiment: Compound was evaluated for inhibition of Saccharomyces cerevisiae glyoxalase-I, activity is determined with 0.5 mM substrate
[2] = biological target: Lactoylglutathione lyase (Saccharomyces cerevisiae); experiment: Compound was evaluated for inhibition of Saccharomyces cerevisiae glyoxalase-I by using enzymatic assay at each of 6 substrate concentrations between 0.1 mM and 2.0 mM

Row | Compound | pIC50 [1] | pKi [2]
1 | CCOC(=O)CNC(=O)C(CCC(=O)NO)NC(=O)CCC(N)C(=O)O (stereo not drawn) [2-Amino-4-[1-(ethoxycarbonylmethyl-carbamoyl)-3-hydroxycarbamoyl-propylcarbamoyl]-butyric acid anion] (γGlu-Glu(NHOH)-Gly-OEt; configuration not given here) | 2.79 | 
2 | NC(CCC(=O)NC(CCC(=O)NO)C(=O)NCC(=O)O)C(=O)O (stereo not drawn) [2-Amino-4-[1-(carboxymethyl-carbamoyl)-3-hydroxycarbamoyl-propylcarbamoyl]-butyric acid anion] (γGlu-Glu(NHOH)-Gly-OH; configuration not given here) |  | 4.03
3 | CN(O)C(=O)CCC(NC(=O)CCC(N)C(=O)O)C(=O)NCC(=O)O (stereo not drawn) [2-Amino-4-[1-(carboxymethyl-carbamoyl)-3-(hydroxy-methyl-carbamoyl)-propylcarbamoyl]-butyric acid anion] |  | 5.72
